Article PMC6271944 (Molecules, 2014)

Tests used:
[1] = target: T1, CYP1A2 (Rattus norvegicus, UniProt P04799); conditions: 30 mg/kg; cited from earlier work
T1 sequence (P04799 1-513): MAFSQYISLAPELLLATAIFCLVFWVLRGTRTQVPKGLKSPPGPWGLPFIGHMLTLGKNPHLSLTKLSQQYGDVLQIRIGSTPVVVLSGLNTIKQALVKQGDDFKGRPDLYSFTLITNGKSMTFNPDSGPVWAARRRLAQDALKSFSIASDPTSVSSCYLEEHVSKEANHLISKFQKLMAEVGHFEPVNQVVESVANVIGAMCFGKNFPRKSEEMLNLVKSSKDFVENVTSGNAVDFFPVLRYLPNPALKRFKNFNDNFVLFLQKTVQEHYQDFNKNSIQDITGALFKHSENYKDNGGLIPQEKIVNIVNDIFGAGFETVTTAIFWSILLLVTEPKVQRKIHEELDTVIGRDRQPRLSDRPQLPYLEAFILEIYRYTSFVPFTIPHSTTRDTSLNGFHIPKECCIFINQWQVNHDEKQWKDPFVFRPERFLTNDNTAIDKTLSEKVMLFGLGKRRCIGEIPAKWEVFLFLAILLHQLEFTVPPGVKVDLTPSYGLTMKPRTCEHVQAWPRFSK

[2] = target: T2, CYP2D6 (Homo sapiens, UniProt P10635); test: CYP inhibition in human liver microsomes, substrate cocktail, LC-MS/MS (dextromethorphan); type: in vitro ADME; conditions: metabolite dextrorphan, read-out: IC50 for HLM, CYP2D6
T2 construct: Pooled human liver microsomes (HLM, LOT 32556) were purchased from BD Gentest Corporation; tissue BD Gentest Corporation LOT 32556; host or cells: pooled human liver microsomes
Excerpt: (§1) Positive controls (furafyline for CYP1A2, montelukast for CYP2C8, sulfaphenazole for CYP2C9, S-(+)-N-3-benzylnirvanol for CYP2C19, quinidine for CYP2D6, ketoconazole for CYP3A4) and specific substrates (phenacetin for CYP1A2, paclitaxel for CYP2C8, diclofenac for CYP2C9, S-mephenytoin for CYP2C19, dextromethorphan for CYP2D6, midazolam for CYP3A4) are consistent with our previous papers. The substrates were used at concentrations approximately equal to their respective Michaelis-Menten constant (Km) values: 10 μM phenacetin, 5 μM paclitaxel, 5 μM diclofenac, 200 μM S-mephenytoin, 5 μM dextromethorphan, and 2 μM midazolam. NADP^+ was added after a 15 min preincubation of all other components at 37 °C. After a given incubation time (30 min), the reactions were terminated by addition of 60 μL ice-cold acetonitrile containing gemfibrozil and buspirone as internal standards. Incubation samples were stored at −80 °C until used in liquid chromatography-tandem mass spectrometry (LC-MS/MS) analysis. The mixture was centrifuged at 3,500 rpm for 5 min. The supernatant was mixed with equal volume of a 1:1 mixture of methanol and water and 20 μL of the final mixture was used for LC-MS/ MS analysis. […]
(§2) The CYP inhibition potential were evaluated by measuring the formation of one or more metabolites of the test substrates. […]

[3] = target: T3, CYP1A2 (Homo sapiens, UniProt P05177); test: CYP inhibition in human liver microsomes, substrate cocktail, LC-MS/MS (phenacetin); type: in vitro ADME; conditions: metabolite acetaminophen, read-out: IC50 for HLM, CYP1A2
T3 construct: Pooled human liver microsomes (HLM, LOT 32556) were purchased from BD Gentest Corporation; tissue BD Gentest Corporation LOT 32556; host or cells: pooled human liver microsomes
T3 sequence (P05177 1-516): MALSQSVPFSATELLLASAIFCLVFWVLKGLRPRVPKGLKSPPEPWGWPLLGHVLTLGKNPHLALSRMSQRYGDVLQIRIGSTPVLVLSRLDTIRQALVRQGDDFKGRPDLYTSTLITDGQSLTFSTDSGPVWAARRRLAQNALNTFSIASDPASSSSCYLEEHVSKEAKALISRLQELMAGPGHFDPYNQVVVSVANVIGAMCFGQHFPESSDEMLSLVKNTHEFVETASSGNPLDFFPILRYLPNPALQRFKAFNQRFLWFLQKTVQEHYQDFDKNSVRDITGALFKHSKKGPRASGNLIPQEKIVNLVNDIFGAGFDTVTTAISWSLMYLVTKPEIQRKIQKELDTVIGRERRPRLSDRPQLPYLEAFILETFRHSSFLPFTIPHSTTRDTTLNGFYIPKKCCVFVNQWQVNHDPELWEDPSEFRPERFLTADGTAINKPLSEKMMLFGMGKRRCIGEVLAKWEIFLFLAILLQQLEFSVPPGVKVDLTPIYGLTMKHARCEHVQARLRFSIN
Excerpt: as §1, §2

[4] = target: T4, CYP2C11 (Rattus norvegicus, UniProt P08683); test: CYP inhibition in rat liver microsomes, substrate cocktail, LC-MS/MS (diclofenac); type: in vitro ADME; conditions: pH 7.4, probe diclofenac 5 μM, read-out: IC50 for RLM, CYP2C11 (table row CYP2C9)
T4 sequence (P08683 1-500): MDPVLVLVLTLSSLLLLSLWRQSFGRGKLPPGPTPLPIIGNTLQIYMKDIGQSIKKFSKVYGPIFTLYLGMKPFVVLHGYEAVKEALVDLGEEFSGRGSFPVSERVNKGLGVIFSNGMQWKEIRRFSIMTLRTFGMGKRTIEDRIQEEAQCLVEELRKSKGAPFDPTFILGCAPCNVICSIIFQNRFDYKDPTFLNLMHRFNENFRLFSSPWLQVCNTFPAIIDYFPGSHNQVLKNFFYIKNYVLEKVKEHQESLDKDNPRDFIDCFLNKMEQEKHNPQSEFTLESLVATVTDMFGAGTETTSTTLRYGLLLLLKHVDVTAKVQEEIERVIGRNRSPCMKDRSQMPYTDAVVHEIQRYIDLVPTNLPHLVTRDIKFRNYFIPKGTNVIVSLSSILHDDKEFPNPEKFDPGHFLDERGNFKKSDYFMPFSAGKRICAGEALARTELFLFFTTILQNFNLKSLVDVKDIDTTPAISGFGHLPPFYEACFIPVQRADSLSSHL
Excerpt: as §1, §2

[5] = test system: WM-266-4 cells; test: Cytotoxicity on WM-266-4 cells; type: cell-based, human; conditions: even at highest concentration

T2 sequence (P10635 whole entry): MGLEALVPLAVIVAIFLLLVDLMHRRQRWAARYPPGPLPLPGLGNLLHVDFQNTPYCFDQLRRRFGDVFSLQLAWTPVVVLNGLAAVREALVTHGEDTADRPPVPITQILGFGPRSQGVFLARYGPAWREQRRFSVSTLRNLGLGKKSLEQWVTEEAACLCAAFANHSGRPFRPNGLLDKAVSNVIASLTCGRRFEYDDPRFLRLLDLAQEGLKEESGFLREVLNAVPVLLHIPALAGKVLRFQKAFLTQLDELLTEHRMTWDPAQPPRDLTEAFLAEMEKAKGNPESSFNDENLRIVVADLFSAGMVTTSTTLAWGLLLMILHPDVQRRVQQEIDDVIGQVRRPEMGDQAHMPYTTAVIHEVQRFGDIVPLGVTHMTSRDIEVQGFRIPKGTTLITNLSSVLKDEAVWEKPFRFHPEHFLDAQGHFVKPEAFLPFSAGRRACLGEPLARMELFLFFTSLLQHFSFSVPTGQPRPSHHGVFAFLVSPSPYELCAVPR

In the case of `O=C(O)[C@H]1O[C@@H](Oc2cc3oc(-c4ccc(O)cc4)cc(=O)c3c(O)c2O)[C@H](O)[C@@H](O)[C@@H]1O` [scutellarin, Scutellarin], the “inhibition of CYP1A2 activity in whole animal studies” value [1] is given as “weakly inhibited”, the IC50 [2] is given as over 100 µM and the IC50 [3] is given as over 100 µM. The IC50 at 30 min [4] was over 100 µM and the “cytotoxicity on WM-266-4 cells” value [5] was “does not show cytotoxicity”.
